# Paper PMC5428509, “Irreversible inhibition of BTK kinase by a novel highly selective inhibitor CHMFL-BTK-11 suppresses inflammatory response in rheumatoid arthritis model” (Scientific Reports, 2017)
# What was measured:
# Assay in all cases: biochemical
# Design in all cases: KinomeScan competition binding panel (DiscoveRx), percent of control at 1 uM
# Details in all cases: read-out: Percent Control
# EPHA8 = EPHA8 (Homo sapiens, UniProt P29322)
# How it was run: (§1)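 Selectivity profiled across 456 kinases/mutants by KinomeScan binding technology.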
# PRKD1 = PRKD1 (Homo sapiens, UniProt Q15139)
# How it was run: as §1
# FER = FER (Homo sapiens, UniProt P16591)
# How it was run: as §1
# PIP5K1A = PIP5K1A (Homo sapiens, UniProt Q99755)
# How it was run: as §1
# [1] = biological target: T1, RSK1(Kin.Dom.1-N-terminal) (Homo sapiens, UniProt Q15418)
# T1 construct: gene RPS6KA1; Kin.Dom.1-N-terminal
# How it was run: as §1
# MRCKB = biological target: T2, MRCKB (Homo sapiens, UniProt Q9Y5S2)
# T2 construct: gene CDC42BPB
# How it was run: as §1
# ERK1 = biological target: T3, ERK1 (Homo sapiens, UniProt P27361)
# T3 construct: gene MAPK3
# How it was run: as §1
# MEK5 = biological target: T4, MEK5 (Homo sapiens, UniProt Q13163)
# T4 construct: gene MAP2K5
# How it was run: as §1
# ERK5 = biological target: T5, ERK5 (Homo sapiens, UniProt Q13164)
# T5 construct: gene MAPK7
# How it was run: as §1
# CHEK2 = CHEK2 (Homo sapiens, UniProt O96017)
# How it was run: as §1
# [2] = biological target: T6, RPS6KA4(Kin.Dom.1-N-terminal) (Homo sapiens, UniProt O75676)
# T6 construct: Kin.Dom.1-N-terminal
# How it was run: as §1
# HIPK3 = HIPK3 (Homo sapiens, UniProt Q9H422)
# How it was run: as §1
# ALK = ALK (Homo sapiens, UniProt Q9UM73)
# How it was run: as §1
# PIK3CA(H1047L) = PIK3CA(H1047L) (Homo sapiens, UniProt P42336, H1047L)
# How it was run: as §1
# ERBB4 = ERBB4 (Homo sapiens, UniProt Q15303)
# How it was run: as §1
# STK39 = STK39 (Homo sapiens, UniProt Q9UEW8)
# How it was run: as §1
# MUSK = MUSK (Homo sapiens, UniProt O15146)
# How it was run: as §1
# PCTK3 = biological target: T7, PCTK3 (Homo sapiens, UniProt Q07002)
# T7 construct: gene CDK18
# How it was run: as §1
# ACVR1B = ACVR1B (Homo sapiens, UniProt P36896)
# How it was run: as §1
# [3] = biological target: EGFR(L747-E749del, A750P) (Homo sapiens, UniProt P00533, A750P/DEL747-749)
# How it was run: as §1
# KIT-autoinhibited = KIT-autoinhibited (Homo sapiens, UniProt P10721)
# How it was run: as §1
# p38-alpha = biological target: T8, p38-alpha (Homo sapiens, UniProt Q16539)
# T8 construct: gene MAPK14
# How it was run: as §1
# PIM2 = PIM2 (Homo sapiens, UniProt Q9P1W9)
# How it was run: as §1
# ICK = biological target: T9, ICK (Homo sapiens, UniProt Q9UPZ9)
# T9 construct: gene CILK1
# How it was run: as §1
# KIT-autoinhibited, sequence (P10721 whole entry): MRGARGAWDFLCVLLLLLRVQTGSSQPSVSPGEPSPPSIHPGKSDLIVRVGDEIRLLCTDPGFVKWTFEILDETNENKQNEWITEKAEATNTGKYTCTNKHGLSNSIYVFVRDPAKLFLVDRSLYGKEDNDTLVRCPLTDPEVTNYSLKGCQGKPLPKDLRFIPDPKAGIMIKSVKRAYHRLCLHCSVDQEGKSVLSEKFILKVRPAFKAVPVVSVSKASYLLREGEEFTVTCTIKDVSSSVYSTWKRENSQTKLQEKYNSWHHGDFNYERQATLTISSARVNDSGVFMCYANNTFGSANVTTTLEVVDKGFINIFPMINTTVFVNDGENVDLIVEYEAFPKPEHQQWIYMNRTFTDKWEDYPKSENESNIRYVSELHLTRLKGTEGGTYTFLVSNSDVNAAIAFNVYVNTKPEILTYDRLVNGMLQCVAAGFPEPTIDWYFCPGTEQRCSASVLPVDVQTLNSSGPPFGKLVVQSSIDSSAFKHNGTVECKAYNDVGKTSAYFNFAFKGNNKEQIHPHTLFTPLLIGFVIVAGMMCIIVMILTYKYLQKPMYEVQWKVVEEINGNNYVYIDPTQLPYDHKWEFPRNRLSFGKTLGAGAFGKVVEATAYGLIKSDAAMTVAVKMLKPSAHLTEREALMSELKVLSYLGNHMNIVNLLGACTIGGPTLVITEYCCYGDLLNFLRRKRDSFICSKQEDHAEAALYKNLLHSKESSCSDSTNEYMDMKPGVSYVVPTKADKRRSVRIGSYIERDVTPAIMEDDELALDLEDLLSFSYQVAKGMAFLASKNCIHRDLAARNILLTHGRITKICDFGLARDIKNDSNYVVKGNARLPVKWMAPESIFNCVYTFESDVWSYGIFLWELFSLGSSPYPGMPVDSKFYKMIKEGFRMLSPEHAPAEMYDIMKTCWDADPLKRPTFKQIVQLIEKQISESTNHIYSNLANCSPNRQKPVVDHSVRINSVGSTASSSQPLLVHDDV
# ERBB4, sequence (Q15303 whole entry): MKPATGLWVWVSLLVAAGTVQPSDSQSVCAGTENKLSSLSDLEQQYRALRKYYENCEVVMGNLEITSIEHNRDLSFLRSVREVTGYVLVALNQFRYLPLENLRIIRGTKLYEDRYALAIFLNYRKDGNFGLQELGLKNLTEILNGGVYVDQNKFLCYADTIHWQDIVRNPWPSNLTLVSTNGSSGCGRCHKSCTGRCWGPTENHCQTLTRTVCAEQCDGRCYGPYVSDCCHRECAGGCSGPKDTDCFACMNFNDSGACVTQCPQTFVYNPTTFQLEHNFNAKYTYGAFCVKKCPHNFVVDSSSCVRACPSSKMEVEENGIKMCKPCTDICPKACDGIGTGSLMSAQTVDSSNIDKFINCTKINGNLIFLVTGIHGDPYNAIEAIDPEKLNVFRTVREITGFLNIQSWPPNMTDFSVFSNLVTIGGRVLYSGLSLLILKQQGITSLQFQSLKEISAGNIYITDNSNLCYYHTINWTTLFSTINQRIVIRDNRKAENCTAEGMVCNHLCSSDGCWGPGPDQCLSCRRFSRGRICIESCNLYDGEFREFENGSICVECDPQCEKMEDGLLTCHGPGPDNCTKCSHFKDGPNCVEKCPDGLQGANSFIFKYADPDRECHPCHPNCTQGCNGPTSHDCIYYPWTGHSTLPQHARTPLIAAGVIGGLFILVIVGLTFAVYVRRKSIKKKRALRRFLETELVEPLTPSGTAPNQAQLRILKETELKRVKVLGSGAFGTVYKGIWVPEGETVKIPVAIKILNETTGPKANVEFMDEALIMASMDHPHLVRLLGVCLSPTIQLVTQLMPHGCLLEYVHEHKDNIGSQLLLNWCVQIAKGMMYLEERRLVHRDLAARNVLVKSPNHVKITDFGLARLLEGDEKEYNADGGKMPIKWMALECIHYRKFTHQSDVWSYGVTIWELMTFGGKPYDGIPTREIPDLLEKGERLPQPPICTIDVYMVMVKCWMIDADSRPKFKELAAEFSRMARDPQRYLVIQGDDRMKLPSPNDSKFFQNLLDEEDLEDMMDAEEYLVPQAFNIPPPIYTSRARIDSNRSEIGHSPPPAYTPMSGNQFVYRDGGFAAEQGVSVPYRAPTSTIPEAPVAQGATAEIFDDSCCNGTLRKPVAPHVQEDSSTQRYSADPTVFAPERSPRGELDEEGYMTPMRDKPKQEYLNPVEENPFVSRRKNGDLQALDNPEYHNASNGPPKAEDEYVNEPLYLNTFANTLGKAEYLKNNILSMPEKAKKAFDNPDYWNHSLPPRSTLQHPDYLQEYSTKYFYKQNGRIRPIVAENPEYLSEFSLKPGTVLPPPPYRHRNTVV
# T5 sequence (Q13164 whole entry): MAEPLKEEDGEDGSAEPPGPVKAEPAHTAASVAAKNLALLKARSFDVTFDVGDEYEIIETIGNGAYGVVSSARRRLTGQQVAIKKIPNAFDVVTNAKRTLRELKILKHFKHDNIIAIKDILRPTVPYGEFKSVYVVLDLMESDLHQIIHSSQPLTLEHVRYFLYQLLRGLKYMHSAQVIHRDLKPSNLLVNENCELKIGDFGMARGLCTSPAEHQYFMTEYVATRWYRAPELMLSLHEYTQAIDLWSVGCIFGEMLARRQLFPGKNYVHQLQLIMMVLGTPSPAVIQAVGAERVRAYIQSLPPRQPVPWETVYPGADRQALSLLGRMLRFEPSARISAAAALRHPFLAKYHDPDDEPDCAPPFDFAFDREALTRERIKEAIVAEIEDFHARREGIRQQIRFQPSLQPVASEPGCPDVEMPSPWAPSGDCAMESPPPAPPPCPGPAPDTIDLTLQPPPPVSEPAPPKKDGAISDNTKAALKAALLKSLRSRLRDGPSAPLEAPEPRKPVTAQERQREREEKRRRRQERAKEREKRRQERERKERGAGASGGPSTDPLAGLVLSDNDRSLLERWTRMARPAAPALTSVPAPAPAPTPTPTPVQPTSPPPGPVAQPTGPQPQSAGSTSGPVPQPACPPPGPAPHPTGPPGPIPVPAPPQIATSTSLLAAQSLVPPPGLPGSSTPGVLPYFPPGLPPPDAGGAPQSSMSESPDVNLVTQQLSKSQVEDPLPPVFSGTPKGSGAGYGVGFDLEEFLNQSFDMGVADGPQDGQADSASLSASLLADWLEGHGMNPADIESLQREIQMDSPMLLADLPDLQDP
# PIM2, sequence (Q9P1W9 whole entry): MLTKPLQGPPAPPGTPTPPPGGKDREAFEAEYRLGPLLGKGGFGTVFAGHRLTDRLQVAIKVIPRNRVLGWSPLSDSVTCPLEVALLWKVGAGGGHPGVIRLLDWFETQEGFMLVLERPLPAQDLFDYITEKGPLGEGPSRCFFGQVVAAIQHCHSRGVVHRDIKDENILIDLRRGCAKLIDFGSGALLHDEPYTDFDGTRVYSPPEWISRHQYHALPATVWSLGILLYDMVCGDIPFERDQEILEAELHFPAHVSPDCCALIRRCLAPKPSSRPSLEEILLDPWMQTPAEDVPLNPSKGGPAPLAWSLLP
# T3 sequence (P27361 whole entry): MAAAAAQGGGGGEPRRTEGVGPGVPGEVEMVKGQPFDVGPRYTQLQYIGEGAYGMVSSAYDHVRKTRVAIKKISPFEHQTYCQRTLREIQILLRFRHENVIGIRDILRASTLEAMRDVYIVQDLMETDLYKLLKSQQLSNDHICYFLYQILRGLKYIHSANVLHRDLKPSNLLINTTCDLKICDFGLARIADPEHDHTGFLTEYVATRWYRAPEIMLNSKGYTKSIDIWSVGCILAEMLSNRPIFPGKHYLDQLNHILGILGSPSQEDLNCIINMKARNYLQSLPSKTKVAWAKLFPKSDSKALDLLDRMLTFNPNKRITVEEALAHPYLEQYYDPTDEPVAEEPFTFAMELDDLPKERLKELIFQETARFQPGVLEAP
# T7 sequence (Q07002 whole entry): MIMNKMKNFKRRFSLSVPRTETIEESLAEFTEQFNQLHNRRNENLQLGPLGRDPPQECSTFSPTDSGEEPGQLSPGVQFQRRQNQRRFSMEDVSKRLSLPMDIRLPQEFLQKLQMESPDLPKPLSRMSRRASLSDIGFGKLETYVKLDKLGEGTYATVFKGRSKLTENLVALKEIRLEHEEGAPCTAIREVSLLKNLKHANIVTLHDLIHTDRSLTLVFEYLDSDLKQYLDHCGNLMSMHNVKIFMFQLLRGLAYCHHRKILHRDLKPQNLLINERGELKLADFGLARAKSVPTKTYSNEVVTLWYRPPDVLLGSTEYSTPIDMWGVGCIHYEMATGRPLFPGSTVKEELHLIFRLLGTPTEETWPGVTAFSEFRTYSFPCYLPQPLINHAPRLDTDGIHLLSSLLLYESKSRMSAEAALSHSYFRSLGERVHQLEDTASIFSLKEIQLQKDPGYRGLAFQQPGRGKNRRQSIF
# T9 sequence (Q9UPZ9 whole entry): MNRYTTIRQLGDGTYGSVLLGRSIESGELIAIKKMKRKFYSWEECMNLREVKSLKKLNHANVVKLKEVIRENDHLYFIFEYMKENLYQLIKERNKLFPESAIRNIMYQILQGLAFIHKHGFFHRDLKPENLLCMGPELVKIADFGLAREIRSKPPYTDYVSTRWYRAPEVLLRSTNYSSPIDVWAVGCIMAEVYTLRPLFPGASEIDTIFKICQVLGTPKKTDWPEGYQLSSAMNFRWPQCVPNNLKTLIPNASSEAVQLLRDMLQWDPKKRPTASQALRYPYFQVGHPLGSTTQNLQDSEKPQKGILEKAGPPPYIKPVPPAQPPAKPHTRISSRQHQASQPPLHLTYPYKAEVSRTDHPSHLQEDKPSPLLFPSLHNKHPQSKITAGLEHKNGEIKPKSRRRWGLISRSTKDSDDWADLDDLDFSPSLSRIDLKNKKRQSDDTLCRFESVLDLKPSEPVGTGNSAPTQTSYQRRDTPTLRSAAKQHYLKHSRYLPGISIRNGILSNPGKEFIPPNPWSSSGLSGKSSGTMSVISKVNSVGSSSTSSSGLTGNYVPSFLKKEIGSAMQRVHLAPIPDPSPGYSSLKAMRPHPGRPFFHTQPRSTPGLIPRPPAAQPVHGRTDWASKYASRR
compound,measurement,setting,value
C=CC(=O)Nc1cc(-n2c(=O)ccc3cnc4ccc(-n5cccn5)cc4c32)ccc1C [CHMFL-BTK-11],remaining binding at 1 µM,EPHA8,92%
same,remaining binding at 1 µM,PRKD1,94%
same,remaining binding at 1 µM,FER,98%
same,remaining binding at 1 µM,PIP5K1A,100%
same,remaining binding at 1 µM,[1],82%
same,remaining binding at 1 µM,MRCKB,100%
same,remaining binding at 1 µM,ERK1,100%
same,remaining binding at 1 µM,MEK5,80%
same,remaining binding at 1 µM,ERK5,100%
same,remaining binding at 1 µM,CHEK2,100%
same,remaining binding at 1 µM,[2],100%
same,remaining binding at 1 µM,HIPK3,100%
same,remaining binding at 1 µM,ALK,100%
same,remaining binding at 1 µM,PIK3CA(H1047L),85%
same,remaining binding at 1 µM,ERBB4,91%
same,remaining binding at 1 µM,STK39,72%
same,remaining binding at 1 µM,MUSK,100%
same,remaining binding at 1 µM,PCTK3,90%
same,remaining binding at 1 µM,ACVR1B,100%
same,remaining binding at 1 µM,[3],73%
same,remaining binding at 1 µM,KIT-autoinhibited,83%
same,remaining binding at 1 µM,p38-alpha,76%
same,remaining binding at 1 µM,PIM2,100%
same,remaining binding at 1 µM,ICK,100%
